{"source": "patent US20210156844A1", "about": "“TMEM16A Modulation for Diagnostic or Therapeutic Use in Pulmonary Hypertension (PH)” (Bayer Aktiengesellschaft, priority 2017, published 2021)", "key": {"TMEM16A": {"target": "T1, TMEM16A (Homo sapiens, UniProt Q5XXA6)", "T1 construct": "endogenous in cells; host or cells: primary human PASMC from healthy donors and IPAH patients", "T1 sequence (Q5XXA6 1-986)": "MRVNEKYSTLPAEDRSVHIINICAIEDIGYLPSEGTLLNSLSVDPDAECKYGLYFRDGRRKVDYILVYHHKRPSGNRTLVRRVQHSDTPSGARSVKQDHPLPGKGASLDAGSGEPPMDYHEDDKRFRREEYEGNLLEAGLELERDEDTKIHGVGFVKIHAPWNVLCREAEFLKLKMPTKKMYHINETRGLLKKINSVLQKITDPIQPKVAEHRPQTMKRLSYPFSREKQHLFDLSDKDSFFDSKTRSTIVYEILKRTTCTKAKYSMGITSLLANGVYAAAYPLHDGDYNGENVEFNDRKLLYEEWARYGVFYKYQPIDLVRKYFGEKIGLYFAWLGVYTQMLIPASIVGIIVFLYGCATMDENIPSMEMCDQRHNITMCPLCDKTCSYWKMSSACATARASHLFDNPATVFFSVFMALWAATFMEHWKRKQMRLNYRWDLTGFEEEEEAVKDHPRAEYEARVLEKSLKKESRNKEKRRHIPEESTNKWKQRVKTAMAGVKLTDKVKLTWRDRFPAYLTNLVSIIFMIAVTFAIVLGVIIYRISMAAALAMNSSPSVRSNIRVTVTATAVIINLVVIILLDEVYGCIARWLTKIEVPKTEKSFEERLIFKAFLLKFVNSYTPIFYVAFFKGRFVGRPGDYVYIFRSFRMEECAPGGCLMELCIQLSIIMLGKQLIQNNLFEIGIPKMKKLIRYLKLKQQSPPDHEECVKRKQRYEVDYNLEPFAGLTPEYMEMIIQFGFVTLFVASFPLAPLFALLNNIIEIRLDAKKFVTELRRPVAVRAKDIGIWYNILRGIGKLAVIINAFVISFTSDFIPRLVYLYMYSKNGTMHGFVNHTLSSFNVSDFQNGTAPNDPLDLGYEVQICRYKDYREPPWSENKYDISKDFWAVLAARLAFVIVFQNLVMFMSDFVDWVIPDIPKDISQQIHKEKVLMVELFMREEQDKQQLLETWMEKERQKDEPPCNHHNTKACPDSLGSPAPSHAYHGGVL", "test": "Measurement of whole-cell Ca2+-activated Cl- current (IClCa), voltage clamp, primary PASMC", "type": "cell-based", "settings": "benzbromarone 30 μM; primary PASMC of both donors and IPAH patients", "protocol": "For the measurement of whole-cell IClCa, PASMC grown in T-25 tissue culture flasks were freshly harvested with StemPro Accutase (Life Technologies), centrifuged (300 g, 5 min) and resuspended in Complete SMC Medium. PASMC were stored at 4° C. until use and were allowed to attach to glass coverslips for 15-30 min at room temperature before the measurements. Cells were perfused with a bath solution composed of (in mM) NaCl 150, glucose 10, HEPES 10, CaCl2 1, MgCl2 1, pH 7.4 (NaOH). The pipette solution contained (in mM) CsCl 110, TEA-Cl 20, EGTA 5, HEPES 10, Na2ATP 1, CaCl2 4.68, MgCl2 1, pH 7.2 (NaOH). The free Ca^2+ concentration of this solution was 2 μM as calculated with the MaxChelator software. In order to minimize K^+ current contamination of the recordings, after the formation of whole-cell configuration the bath solution was switched to a bath composed of (in mM) NaCl 140, glucose 10, HEPES 10, TEA-Cl 10, CaCl2 1, MgCl2 1, pH 7.4 (NaOH). In order to measure IClCa, the command potential was stepped from a 0 mV holding potential to −40, 0, +40, +80 and +120 mV for 1.5 s, allowing 0.5 s recovery time at the holding potential between each step. The average current measured between 750 and 1500 ms of each voltage step was plotted against the […]. […] Cells from the same batch that were cultured, harvested and recorded under normoxic conditions served as controls."}, "PASMC": {"system": "PASMC", "test": "Membrane potential (Em) measurement, current clamp, primary PASMC", "type": "cell-based, human", "settings": "BBR 30 μM, T16Ainh-A01 10 μM", "protocol": "PASMC were grown on glass coverslips and serum starved for 24-48 hours. The coverslips were perfused with a bath solution composed of (in mM) NaCl 141, KCl 4.7, HEPES 10, glucose 10, CaCl2 1.8, MgCl2 1.2, pH 7.4 (NaOH) at room temperature. Micropipettes were pulled of borosilicate glass capillaries (GC150F-10, Harvard Apparatus Ltd, Edenbridge, Kent, UK) with a P-2000 electrode puller (Sutter Instruments, Novato Ca, USA), and fire polished using a micro-forge (MF-830, Narishige, Tokyo, Japan) to give a final resistance of 3-5 MΩ when filled with the pipette solution (composition in mM: NaCl 10, KCl 125, K2ATP 5, HEPES 10, EGTA 5, MgCl2 4, pH set to 7.2 with KOH). Em was measured with a HEKA EPC10 patch clamp amplifier (Dr. Schulze GmbH, Lambrecht, Germany) in the current clamp mode as described by others (Mason, M J, et al., Biophys. J. (2005) 88, 739-750; Perkins, KL, J. Neurosci. Methods (2006) 154, 1-18).\nThe liquid junction potential was calculated with the Clampex 10.0 software (Molecular Devices, Sunnyvale Calif., USA) and an online correction was made for each recording. Both at baseline and during perfusion with 30 μM benzbromarone (BBR, Sigma, St Louis Mo., USA) or 10 μM T16Ainh-A01 (Tocris, Bristol, UK), only those recordings in which (1) the Em was constant for at least 3 minutes, and (2) the seal resistance was constantly high (>5 GΩ) were used for the analyses.\nThe HEK-293 cells were transfected overnight either with the CLCA1 gene containing or with the empty plasmid, using the Effectene transfection reagent kit (Qiagen) and DMEM F-12 complete medium. On the next day, the medium was changed to serum-free SMC Medium. The resulting conditioned media were collected 24 hours later and applied on the PASMC of healthy donors. After 24 hours of incubation, the Em of the PASMC was measured as described above. To confirm the presence of CLCA1 in the conditioned medium, 20 μL of conditioned medium as well as control medium (collected from cells transfected with the empty plasmide) were analyzed with western blot as described above, using a CLCA1 antibody (ab108851, Abcam)."}}, "data": [{"compound": "CCc1oc2ccccc2c1C(=O)c1cc(Br)c(O)c(Br)c1", "note": "[benzbromarone, (2-Ethyl-3-benzofuranyl)-(3,5-dibrom-4-hydroxyphenyl)ketone]", "values": [{"measurement": "whole-cell IClCa", "setting": "TMEM16A", "result": "significantly decreased"}, {"measurement": "reversal of the Em of IPAH-PASMC to the levels of PASMC isolated from healthy donors", "setting": "PASMC; PASMC of IPAH patients", "result": "completely"}, {"measurement": "effect on Em of PASMC of donors", "setting": "PASMC; PASMC of healthy donors", "result": "no effect"}]}]}
